Assay results from the NIST ThermoML archive (doi:10.1021/je900093h).
± gives the expanded uncertainty stated by the source.

Tests used:
[1] = molar heat capacity at constant pressure; conditions: 101.33 kPa, Vacuum adiabatic calorimetry
[2] = molar enthalpy of vaporization or sublimation; conditions: 304.79 K; Liquid; Static calorimetry
[3] = for vapor or sublimation pressure: Liquid, Calculated from knudsen effusion weight loss

CCCCCCCCCC(=O)OCC [ethyl decanoate]
molar heat capacity at constant pressure ([1]; 5 K, Crystal): 0.498 ± 0.019 J/K/mol | molar heat capacity at constant pressure ([1]; 10 K, Crystal): 4.477 ± 0.053 J/K/mol | molar heat capacity at constant pressure ([1]; 15 K, Crystal): 11.92 ± 0.12 J/K/mol | molar heat capacity at constant pressure ([1]; 20 K, Crystal): 21.04 ± 0.19 J/K/mol | molar heat capacity at constant pressure ([1]; 25 K, Crystal): 30.97 ± 0.27 J/K/mol | molar heat capacity at constant pressure ([1]; 30 K, Crystal): 41.18 ± 0.34 J/K/mol | molar heat capacity at constant pressure ([1]; 35 K, Crystal): 51.36 ± 0.43 J/K/mol | molar heat capacity at constant pressure ([1]; 40 K, Crystal): 61.27 ± 0.51 J/K/mol | molar heat capacity at constant pressure ([1]; 45 K, Crystal): 71.2 ± 0.59 J/K/mol | molar heat capacity at constant pressure ([1]; 50 K, Crystal): 80.91 ± 0.66 J/K/mol | molar heat capacity at constant pressure ([1]; 60 K, Crystal): 98.99 ± 0.81 J/K/mol | molar heat capacity at constant pressure ([1]; 70 K, Crystal): 115.2 ± 0.9 J/K/mol | molar heat capacity at constant pressure ([1]; 80 K, Crystal): 130.2 ± 1.1 J/K/mol | molar heat capacity at constant pressure ([1]; 90 K, Crystal): 144.3 ± 1.2 J/K/mol | molar heat capacity at constant pressure ([1]; 100 K, Crystal): 157.4 ± 1.3 J/K/mol | molar heat capacity at constant pressure ([1]; 110 K, Crystal): 169.3 ± 1.4 J/K/mol | molar heat capacity at constant pressure ([1]; 120 K, Crystal): 180 ± 1.5 J/K/mol | molar heat capacity at constant pressure ([1]; 130 K, Crystal): 189.6 ± 1.5 J/K/mol | molar heat capacity at constant pressure ([1]; 140 K, Crystal): 198.3 ± 1.6 J/K/mol | molar heat capacity at constant pressure ([1]; 150 K, Crystal): 206.8 ± 1.7 J/K/mol | molar heat capacity at constant pressure ([1]; 160 K, Crystal): 214.7 ± 1.7 J/K/mol | molar heat capacity at constant pressure ([1]; 170 K, Crystal): 222.5 ± 1.8 J/K/mol | molar heat capacity at constant pressure ([1]; 180 K, Crystal): 230.5 ± 1.9 J/K/mol | molar heat capacity at constant pressure ([1]; 190 K, Crystal): 238.8 ± 1.9 J/K/mol | molar heat capacity at constant pressure ([1]; 200 K, Crystal): 247.4 ± 2 J/K/mol | molar heat capacity at constant pressure ([1]; 210 K, Crystal): 256.7 ± 2.1 J/K/mol | molar heat capacity at constant pressure ([1]; 220 K, Crystal): 266.7 ± 2.2 J/K/mol | molar heat capacity at constant pressure ([1]; 230 K, Crystal): 277.5 ± 2.2 J/K/mol | molar heat capacity at constant pressure ([1]; 240 K, Crystal): 288.9 ± 2.3 J/K/mol | molar heat capacity at constant pressure ([1]; 250 K, Crystal): 301.2 ± 2.4 J/K/mol | molar heat capacity at constant pressure ([1]; 253.6 K, Crystal): 305.7 ± 2.5 J/K/mol | molar heat capacity at constant pressure ([1]; 253.6 K, Liquid): 386.5 ± 3.1 J/K/mol | molar heat capacity at constant pressure ([1]; 260 K, Liquid): 388.1 ± 3.1 J/K/mol | molar heat capacity at constant pressure ([1]; 270 K, Liquid): 391.3 ± 3.2 J/K/mol | molar heat capacity at constant pressure ([1]; 280 K, Liquid): 395.2 ± 3.2 J/K/mol | molar heat capacity at constant pressure ([1]; 290 K, Liquid): 399.6 ± 3.2 J/K/mol | molar heat capacity at constant pressure ([1]; 298.15 K, Liquid): 403.5 ± 3.3 J/K/mol | molar heat capacity at constant pressure ([1]; 300 K, Liquid): 404.4 ± 3.3 J/K/mol | molar heat capacity at constant pressure ([1]; 310 K, Liquid): 409.6 ± 3.3 J/K/mol | molar heat capacity at constant pressure ([1]; 320 K, Liquid): 415 ± 3.3 J/K/mol | molar heat capacity at constant pressure ([1]; 330 K, Liquid): 420.6 ± 3.4 J/K/mol | molar heat capacity at constant pressure ([1]; 340 K, Liquid): 426.4 ± 3.4 J/K/mol | molar heat capacity at constant pressure ([1]; 350 K, Liquid): 432.3 ± 3.5 J/K/mol | molar heat capacity at constant pressure ([1]; 360 K, Liquid): 438.3 ± 3.5 J/K/mol | molar heat capacity at constant pressure ([1]; 370 K, Liquid): 444.5 ± 3.6 J/K/mol | molar enthalpy [2]: 16.7 ± 0.335 kcal/mol | vapor or sublimation pressure ([3]; 293.77 K): 0.00169 ± 0.00022 kPa | vapor or sublimation pressure ([3]; 298.67 K): 0.00267 ± 0.00035 kPa | vapor or sublimation pressure ([3]; 298.72 K): 0.00267 ± 0.00035 kPa | vapor or sublimation pressure ([3]; 303.68 K): 0.00414 ± 0.00056 kPa | vapor or sublimation pressure ([3]; 308.61 K): 0.00648 ± 0.00091 kPa | vapor or sublimation pressure ([3]; 313.57 K): 0.01 ± 0.0015 kPa | vapor or sublimation pressure ([3]; 318.32 K): 0.0152 ± 0.0023 kPa | vapor or sublimation pressure ([3]; 323.24 K): 0.0219 ± 0.0034 kPa | Triple point temperature ([3]; Crystal): 253.6 ± 0.31 K
